Measured values as given in ChEMBL document CHEMBL5154636, “Discovery of STAT3 and Histone Deacetylase (HDAC) Dual-Pathway Inhibitors for the Treatment of Solid Cancer” (J Med Chem, 2021).
The source made the active and inactive calls. The rule behind the calls is not given here.

Experiments:
[1] = Toxicity in BALB/c mousee assessed as change in body weight at 15 to 30 mg/kg, ip qd for 21 days; format: organism-based; settings: mouse, in vivo, 504 h, dose 15-30 mg/kg, time 21 day
MDA-MB-231 [2] = assay: Induction of apoptosis in human MDA-MB-231 cells assessed as necrotic cells at 2 uM incubated for 24 hrs by Annexin-V/FITC and PI staining based flow cytometry analysis (reference value: 0.0%); format: functional
Histone deacetylase 1 = Histone deacetylase 1 (Homo sapiens, UniProt Q13547); assay: Inhibition of recombinant human HDAC1 using RHKK(Ac)AMC fluorogenic peptide as substrate by fluorescence assay
Histone deacetylase = assay: Inhibition of HDAC in human MDA-MB-231 cells incubated for 24 hrs by fluorometric assay; format: cell-based
MDA-MB-231 [3] = assay: Induction of apoptosis in human MDA-MB-231 cells assessed as increase in cleaved capase-7 level at 0.5 to 5 uM incubated for 24 hrs by Western blot analysis; format: functional, cell-based; settings: dose 0.5-5 µM
[4] = Acute toxicity in po dosed ICR mouse assessed as maximum tolerated dose measured after 7 days; format: organism-based; settings: in vivo, time 7 day
4T1 [5] = assay: Antitumor activity against mouse 4T1 cells allografted in BALB/c mouse assessed as reduction in tumor weight at 30 mg/kg, ip qd for 21 days by vernier caliper method relative to control; format: functional; set-up: scale not given: the % may be the effect or the level left; settings: time 21 day
MDA-MB-231 [6] = assay: Induction of apoptosis in human MDA-MB-231 cells assessed as viable cells at 10 uM incubated for 24 hrs by Annexin-V/FITC and PI staining based flow cytometry analysis (reference value: 97.8%); format: functional; settings: read-out: Activity
[7] = molecular target: T1, Signal transducer and activator of transcription 3 (Homo sapiens, UniProt P40763); assay: Binding affinity to recombinant GST tagged STAT3 (unknown origin) assessed as dissociation constant
MDA-MB-231 [8] = assay: Induction of apoptosis in human MDA-MB-231 cells assessed as late apoptotic cells at 10 uM incubated for 24 hrs by Annexin-V/FITC and PI staining based flow cytometry analysis (reference value: 0.7%); format: functional
[9] = molecular target: T1, Signal transducer and activator of transcription 3; assay: Binding affinity to recombinant GST tagged STAT3 (unknown origin) assessed as association constant at equilibrium
MDA-MB-231 [10] = assay: Induction of apoptosis in human MDA-MB-231 cells assessed as necrotic cells at 5 uM incubated for 24 hrs by Annexin-V/FITC and PI staining based flow cytometry analysis (reference value: 0.0%); format: functional
MDA-MB-231 [11] = assay: Induction of apoptosis in human MDA-MB-231 cells assessed as increase in cleaved PARP level at 0.5 to 5 uM incubated for 24 hrs by Western blot analysis; format: functional, cell-based; settings: dose 0.5-5 µM
[12] = Half life in Sprague-Dawley rat at 20 mg/kg, po measured upto 24 hrs by LC-MS/MS analysis; format: ADME, organism-based; settings: in vivo
MDA-MB-231 [13] = assay: Cytotoxicity against human MDA-MB-231 cells assessed as reduction in cell viability incubated for 48 hrs by MTT assay; format: functional, cell-based; settings: MDA-MB-231, 48 h
MDA-MB-231 [14] = assay: Induction of apoptosis in human MDA-MB-231 cells assessed as viable cells at 2 uM incubated for 24 hrs by Annexin-V/FITC and PI staining based flow cytometry analysis (reference value: 97.8%); format: functional; settings: read-out: Activity
[15] = molecular target: T2, Histone deacetylase (Homo sapiens) (UniProt Q13547+O15379+Q9UBN7+Q92769+Q9UQL6+Q8WUI4+Q9BY41+Q96DB2+P56524+Q9UKV0+Q969S8); assay: Inhibition of HDAC in human MDA-MB-231 cells assessed as increase in alpha tubulin acetylation incubated for 24 hrs by Western blot analysis; format: cell-based; settings: dose 0.5-5 µM, DDE = dose-dependent effect
[16] = molecular target: T2, Histone deacetylase (Homo sapiens); assay: Inhibition of HDAC in human MDA-MB-231 cells assessed as increase in histone H3 acetylation incubated for 24 hrs by Western blot analysis; format: cell-based; settings: dose 0.5-5 µM, DDE = dose-dependent effect
MDA-MB-231 [17] = assay: Induction of apoptosis in human MDA-MB-231 cells assessed as chromatin condensation at 0.5 to 5 uM incubated for 24 hrs by Hoechst 33258 staining based fluorescence microscopy analysis; format: functional, cell-based; settings: dose 0.5-5 µM
4T1 [18] = assay: Antitumor activity against mouse 4T1 cells allografted in BALB/c mouse assessed as reduction in tumor volume at 15 mg/kg, ip qd for 21 days and measured every 3 days by vernier caliper method relative to control; format: functional; set-up: scale not given: the % may be the effect or the level left; settings: time 21 day
[19] = molecular target: T1, Signal transducer and activator of transcription 3; assay: Inhibition of STAT3 in human MDA-MB-231 cells assessed as decrease in Bcl-2 mRNA expression at 0.5 to 5 uM by qRT-PCR analysis; format: cell-based; settings: dose 0.5-5 µM
[20] = molecular target: Histone deacetylase 4 (Homo sapiens) (UniProt P56524); assay: Inhibition of recombinant human HDAC4 at 10 uM using […] substrate by fluorescence assay relative to control
MDA-MB-231 [21] = assay: Induction of apoptosis in human MDA-MB-231 cells assessed as viable cells at 5 uM incubated for 24 hrs by Annexin-V/FITC and PI staining based flow cytometry analysis (reference value: 97.8%); format: functional; settings: read-out: Activity
L02 = assay: Cytotoxicity against human L02 cells assessed as reduction in cell viability at 32 uM incubated for 48 hrs by MTT assay relative to control; format: toxicity, cell-based; settings: l02, 48 h
[22] = Clearance in Sprague-Dawley rat at 2 mg/kg, iv measured upto 24 hrs by LC-MS/MS analysis; format: ADME, organism-based; settings: in vivo
MDA-MB-231 [23] = assay: Induction of apoptosis in human MDA-MB-231 cells assessed as chromatinorrhexis at 0.5 to 5 uM incubated for 24 hrs by Hoechst 33258 staining based fluorescence microscopy analysis; format: functional, cell-based; settings: dose 0.5-5 µM
MDA-MB-231 [24] = assay: Antimigratory activity against human MDA-MB-231 cells assessed as inhibition of cell migration at 5 uM after 24 hrs by scratch wound healing assay based phase contrast microscopy analysis; format: functional
[25] = Oral bioavailability in Sprague-Dawley rat at 20 mg/kg measured upto 24 hrs by LC-MS/MS analysis; format: ADME, organism-based; settings: in vivo
MCF-10A = assay: Cytotoxicity against human MCF-10 A cells assessed as reduction in cell viability at 32 uM incubated for 48 hrs by MTT assay relative to control; format: toxicity, cell-based
MDA-MB-231 [26] = assay: Induction of apoptosis in human MDA-MB-231 cells assessed as increase in cleaved capase-3 level at 0.5 to 5 uM incubated for 24 hrs by Western blot analysis; format: functional, cell-based; settings: dose 0.5-5 µM
MDA-MB-231 [27] = assay: Induction of apoptosis in human MDA-MB-231 cells assessed as late apoptotic cells at 2 uM incubated for 24 hrs by Annexin-V/FITC and PI staining based flow cytometry analysis (reference value: 0.7%); format: functional

T1 sequence (P40763 whole entry): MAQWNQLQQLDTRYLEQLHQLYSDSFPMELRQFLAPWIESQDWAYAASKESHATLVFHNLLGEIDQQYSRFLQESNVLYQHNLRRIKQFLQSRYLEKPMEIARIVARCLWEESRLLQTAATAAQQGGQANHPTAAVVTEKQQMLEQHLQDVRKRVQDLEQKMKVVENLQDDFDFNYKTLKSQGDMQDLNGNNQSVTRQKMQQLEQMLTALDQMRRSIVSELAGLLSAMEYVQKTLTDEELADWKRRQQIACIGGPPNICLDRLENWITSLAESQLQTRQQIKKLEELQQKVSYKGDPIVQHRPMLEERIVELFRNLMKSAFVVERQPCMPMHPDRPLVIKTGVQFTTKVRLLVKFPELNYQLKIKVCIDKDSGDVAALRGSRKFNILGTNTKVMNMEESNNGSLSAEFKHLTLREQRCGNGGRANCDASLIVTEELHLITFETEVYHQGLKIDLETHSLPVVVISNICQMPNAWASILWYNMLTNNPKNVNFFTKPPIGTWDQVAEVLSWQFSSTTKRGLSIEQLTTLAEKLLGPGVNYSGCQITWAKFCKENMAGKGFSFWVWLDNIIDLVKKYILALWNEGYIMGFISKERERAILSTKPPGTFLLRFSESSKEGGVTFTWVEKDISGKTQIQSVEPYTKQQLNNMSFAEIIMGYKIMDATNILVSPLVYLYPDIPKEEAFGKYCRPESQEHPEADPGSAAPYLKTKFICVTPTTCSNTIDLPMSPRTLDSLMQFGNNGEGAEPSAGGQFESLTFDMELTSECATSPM
Sequence of Histone deacetylase 4 (Homo sapiens) (P56524 whole entry): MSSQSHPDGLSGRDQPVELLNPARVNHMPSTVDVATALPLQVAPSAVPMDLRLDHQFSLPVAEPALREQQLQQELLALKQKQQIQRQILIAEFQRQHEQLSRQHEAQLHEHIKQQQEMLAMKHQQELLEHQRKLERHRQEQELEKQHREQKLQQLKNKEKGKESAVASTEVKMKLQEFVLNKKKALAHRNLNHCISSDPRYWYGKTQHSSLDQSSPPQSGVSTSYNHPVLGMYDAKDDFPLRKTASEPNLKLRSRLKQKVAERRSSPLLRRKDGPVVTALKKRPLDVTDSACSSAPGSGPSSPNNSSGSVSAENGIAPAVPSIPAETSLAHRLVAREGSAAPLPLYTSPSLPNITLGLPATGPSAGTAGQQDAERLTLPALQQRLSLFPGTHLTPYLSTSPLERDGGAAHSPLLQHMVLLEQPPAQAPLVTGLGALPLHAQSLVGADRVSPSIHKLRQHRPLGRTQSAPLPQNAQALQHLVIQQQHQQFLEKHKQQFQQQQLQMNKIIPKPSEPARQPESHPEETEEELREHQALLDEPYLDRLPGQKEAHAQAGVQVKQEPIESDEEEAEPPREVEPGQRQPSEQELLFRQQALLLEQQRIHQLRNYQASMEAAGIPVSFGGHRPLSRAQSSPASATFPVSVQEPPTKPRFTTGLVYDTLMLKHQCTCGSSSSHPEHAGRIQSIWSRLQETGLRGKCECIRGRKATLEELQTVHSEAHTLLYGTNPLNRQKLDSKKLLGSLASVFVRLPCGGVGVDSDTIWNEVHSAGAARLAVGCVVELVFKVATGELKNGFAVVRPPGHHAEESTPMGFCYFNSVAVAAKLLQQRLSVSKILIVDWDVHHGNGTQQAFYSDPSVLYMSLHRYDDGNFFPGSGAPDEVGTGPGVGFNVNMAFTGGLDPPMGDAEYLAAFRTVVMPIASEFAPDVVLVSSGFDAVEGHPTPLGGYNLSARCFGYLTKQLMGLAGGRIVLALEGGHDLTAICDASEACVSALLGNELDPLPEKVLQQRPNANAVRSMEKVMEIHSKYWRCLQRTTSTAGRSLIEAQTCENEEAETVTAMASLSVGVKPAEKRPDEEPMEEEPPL
Sequence of Histone deacetylase 1 (Q13547 whole entry): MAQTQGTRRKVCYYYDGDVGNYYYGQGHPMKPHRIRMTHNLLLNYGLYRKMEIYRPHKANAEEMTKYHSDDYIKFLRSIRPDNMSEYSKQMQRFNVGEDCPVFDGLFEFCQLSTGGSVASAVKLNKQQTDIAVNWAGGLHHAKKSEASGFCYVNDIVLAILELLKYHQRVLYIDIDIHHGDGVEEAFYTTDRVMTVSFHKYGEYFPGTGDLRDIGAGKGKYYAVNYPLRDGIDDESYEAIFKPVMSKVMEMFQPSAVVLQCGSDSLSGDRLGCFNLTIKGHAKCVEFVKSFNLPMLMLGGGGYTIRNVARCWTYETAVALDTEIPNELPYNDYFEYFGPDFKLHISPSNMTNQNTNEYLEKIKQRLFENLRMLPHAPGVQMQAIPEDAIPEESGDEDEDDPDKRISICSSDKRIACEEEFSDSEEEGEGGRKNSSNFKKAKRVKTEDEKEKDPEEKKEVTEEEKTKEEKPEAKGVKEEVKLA

## COc1cc(/C=C/c2ccc(OCCCCCCC(=O)NO)cc2)cc(OC)c1
[1]
  Activity: Non-Toxic
MDA-MB-231 [2]
  Activity: 0.1%
Histone deacetylase 1
  IC50: 683 nM
Histone deacetylase
  IC50: 23.15 nM
MDA-MB-231 [3]
  Activity: Active
[4]
  MTD at 168 h: > 400 mg/kg
4T1 [5]
  Activity: 62%
MDA-MB-231 [6]
  viability at 10 µM: 40.5%
[7]
  Kd: 0.01516 s⁻¹
[7]; read-out: Kd
  Kd: 33.6 nM
MDA-MB-231 [8]
  Activity: 19.7%
[9]
  Ka: 451000 M⁻¹ s⁻¹
MDA-MB-231 [10]
  Activity: 0.2%
MDA-MB-231 [11]
  Activity: Active
[12]
  half-life: 52.8 min
MDA-MB-231 [13]
  IC50: 780 nM
MDA-MB-231 [14]
  viability at 2 µM: 89.3%
[15]
  Activity: Dde
[16]
  Activity: Dde
MDA-MB-231 [17]
  Activity: Active
4T1 [18]
  Activity: 54%
[19]
  inhibition: Active
[20]
  inhibition: 12%
MDA-MB-231 [21]
  viability at 5 µM: 80.8%
L02
  Activity: 32%
[22]
  clearance: 63.9 mL/min/kg
MDA-MB-231 [23]
  Activity: Active
MDA-MB-231 [24]
  Activity: Active
[25]
  bioavailability: 5.81%
MCF-10A
  Activity: 38%
MDA-MB-231 [26]
  Activity: Active
MDA-MB-231 [27]
  Activity: 5.7%
